Source: article PMC3579662 (Journal of the American Chemical Society, 2013)

How the values were obtained:
[1] = target: T1, alanine racemase (AR); light protiated form HAR (Geobacillus stearothermophilus, UniProt P10724); assay: Michaelis-Menten saturation curves; assay type: biochemical; details: pH 8.9, 25 °C; light (protiated) enzyme
[2] = target: T1, alanine racemase (AR); light protiated form HAR; assay: steady-state racemization kinetics, competitive inhibition; assay type: biochemical

T1 sequence (P10724 whole entry): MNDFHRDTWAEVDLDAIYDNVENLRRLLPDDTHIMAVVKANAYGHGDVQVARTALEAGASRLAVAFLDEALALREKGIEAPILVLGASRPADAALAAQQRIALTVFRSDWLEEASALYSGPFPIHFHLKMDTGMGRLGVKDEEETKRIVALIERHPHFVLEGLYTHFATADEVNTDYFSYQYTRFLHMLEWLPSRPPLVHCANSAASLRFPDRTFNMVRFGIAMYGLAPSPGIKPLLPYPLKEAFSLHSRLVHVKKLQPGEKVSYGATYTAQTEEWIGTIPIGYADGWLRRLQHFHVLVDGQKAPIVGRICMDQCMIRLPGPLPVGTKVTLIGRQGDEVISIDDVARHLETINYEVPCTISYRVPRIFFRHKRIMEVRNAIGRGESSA

| SMILES | KM [1] | Ki [2] [mM] |
| --- | --- | --- |
| C[C@H](N)C(=O)O [L-alanine] | Michaelis-Menten saturation curves for ^HAR and ^DAR with protiated L- and D-alanine |  |
| C[C@@H](N)C(=O)O [D-alanine] | Michaelis-Menten saturation curves for ^HAR and ^DAR with protiated L- and D-alanine |  |
| CC(C)(N)C(=O)O [2-methylalanine] |  | 24 ± 1 |
